# From US10058526B2, “Compositions containing pheromones for treating behavioural or medical problems linked to the stress of non-human mammals” (CEVA SANTE ANIMALE, priority 2014, dated 2018)
# Where a name gives a salt, the structure may show the parent alone.
# Assay: Diffusion of solvents in a 5.6 W electric diffuser (Example 1)
# Type: physicochemical
# Settings: 48 ml solvent, average per day over 30 days
# Protocol: 48 ml of solvent to be tested are placed in a 5.6 W electric diffuser. The amount of solvent diffused is measured for 30 days following plugging in of the diffuser, and the average diffusion of product per day is calculated and summarized in Table 1 below: […]
row,Molecule,Diffusion of product [g/day]
1,CO[C@H]1CO[C@H]2[C@@H]1OC[C@H]2OC [Isosorbide dimethyl ether],2
2,Glycofurol,0.5
3,CCOC(=O)CC(O)(CC(=O)OCC)C(=O)OCC [Triethyl citrate],1
4,CC1COC(=O)O1 (stereo not shown) [Propylene carbonate],4
5,CC(C)CCCCCCOC(=O)CCCCCC(C)C [Isononyl isononanoate],2
6,CCCCCCCCCCCCCC(=O)OC(C)C [Isopropyl myristate],1
7,CC(C)OC(=O)CCCCCCCCC(=O)OC(C)C [Diisopropyl sebacate],1
